Results as given in patent US20220248678A1, “HERBICIDAL COMPOUNDS” (SYNGENTA CROP PROTECTION AG, priority 2019, published 2022).

Tests used:
Experiment in all cases: Post-emergence efficacy, glasshouse
Type in all cases: in vivo
Settings in all cases: after 13 days, 100=total damage to plant, 0=no damage to plant
[1] = test system: Euphorbia heterophylla (EPHHL)
Description: (§1) Seeds of a variety of test species were shown in standard soil in pots. After cultivation for 14 days (post-emergence) under controlled conditions in a glasshouse (at 24/16° C., day/night; 14 hours light; 65% humidity), the plants were sprayed with an aqueous spray solution derived from the dissolution of the technical active ingredient for each of compounds 1 to 26 from Table A above, in a small amount of acetone and a special solvent and emulsifier mixture referred to as IF50 (11.12% Emulsogen EL360 TM+44.44% N-methylpyrrolidone+44.44% Dowanol DPM glycol ether), to create a 50 g/I solution which was then diluted to required concentration using 0.25% or 1% Empicol ESC70 (Sodium lauryl ether sulphate)+1% ammonium sulphate in water as diluent. These spray test compositions are described as composition numbers C1 to C26, with the numerical value corresponding to the compound number from Table A.
(§2) The test plants were then grown in a glasshouse under controlled conditions (at 24/16° C., day/night; 14 hours light; 65% humidity) and watered twice daily. After 13 days the test was evaluated (100=total damage to plant; 0=no damage to plant).
(§3) Ipomoea hederacea (IPOHE), Euphorbia heterophylla (EPHHL), Chenopodium album (CHEAL), Amaranthus palmeri (AMAPA), Lolium perenne (LOLPE), Digitaria sanguinalis (DIGSA), Eleusine indica (ELEIN), Echinochloa crus-galli (ECHCG), Setaria faberi (SETFA)

[2] = test system: Ipomoea hederacea (IPOHE)
Description: as §1, §2, §3

[3] = test system: Echinochloa crus-galli (ECHCG)
Description: as §1, §2, §3

Setaria faberi (SETFA) = test system: Setaria faberi (SETFA)
Description: as §1, §2, §3

[4] = test system: Digitaria sanguinalis (DIGSA)
Description: as §1, §2, §3

[5] = test system: Amaranthus palmeri (AMAPA)
Description: as §1, §2, §3

Lolium perenne (LOLPE) = test system: Lolium perenne (LOLPE)
Description: as §1, §2, §3

[6] = test system: Chenopodium album (CHEAL)
Description: as §1, §2, §3

Eleusine indica (ELEIN) = test system: Eleusine indica (ELEIN)
Description: as §1, §2, §3

SMILES | Control of weed species EPHHL ([1]; 500 g/Ha) | Control of weed species IPOHE ([2]; 500 g/Ha) | Control of weed species ECHCG ([3]; 500 g/Ha) | Control of weed species SETFA (Setaria faberi (SETFA); 500 g/Ha) | Control of weed species DIGSA ([4]; 500 g/Ha) | Control of weed species AMAPA ([5]; 500 g/Ha) | Control of weed species LOLPE (Lolium perenne (LOLPE); 500 g/Ha) | Control of weed species CHEAL ([6]; 500 g/Ha) | Control of weed species ELEIN (Eleusine indica (ELEIN); 500 g/Ha) | Control of weed species EPHHL ([1]; 1000 g/Ha) | Control of weed species IPOHE ([2]; 1000 g/Ha) | Control of weed species ECHCG ([3]; 1000 g/Ha) | Control of weed species SETFA (Setaria faberi (SETFA); 1000 g/Ha) | Control of weed species DIGSA ([4]; 1000 g/Ha) | Control of weed species AMAPA ([5]; 1000 g/Ha) | Control of weed species LOLPE (Lolium perenne (LOLPE); 1000 g/Ha) | Control of weed species CHEAL ([6]; 1000 g/Ha) | Control of weed species ELEIN (Eleusine indica (ELEIN); 1000 g/Ha) | further results
CCCOP(=O)([O-])c1c[n+](C)nc2ccccc12 [Composition C21] | 100 | 100 | 70 | 100 | 100 | 100 | 70 | 100 | 100 |  |  |  |  |  |  |  |  |  | 
C[n+]1cc(P(=O)([O-])OCc2ccccc2)c2ccccc2n1 [Composition C22] | 60 | 20 | 20 | 30 | 60 | 10 | 10 | 20 | 60 |  |  |  |  |  |  |  |  |  | 
C[n+]1cc(P(=O)([O-])OCc2ccc(F)cc2)c2ccccc2n1 [Composition C23] |  |  |  |  |  |  |  |  |  |  |  |  |  |  |  |  |  |  | Control of weed species EPHHL ([1]; 125 g/Ha): 40; Control of weed species IPOHE ([2]; 125 g/Ha): 10; Control of weed species ECHCG ([3]; 125 g/Ha): 30; Control of weed species SETFA (Setaria faberi (SETFA); 125 g/Ha): 30; Control of weed species DIGSA ([4]; 125 g/Ha): 60; Control of weed species AMAPA ([5]; 125 g/Ha): 20; Control of weed species LOLPE (Lolium perenne (LOLPE); 125 g/Ha): 10; Control of weed species CHEAL ([6]; 125 g/Ha): 10; Control of weed species ELEIN (Eleusine indica (ELEIN); 125 g/Ha): 40
C[n+]1cc(P(=O)([O-])OCC2CCCO2)c2ccccc2n1 (stereo not drawn) [Composition C25] |  |  |  |  |  |  |  |  |  | 80 | 60 | 90 | 80 | 50 | 100 | 60 | 90 | 100 | 
CC(C)COP(=O)([O-])c1c[n+](C)nc2ccccc12 [Composition C26] |  |  |  |  |  |  |  |  |  | 100 | 60 | 60 | 90 | 60 | 100 | 40 | 90 | 90 | 
COP(=O)([O-])c1c[n+](C)nc2ccccc12 [Composition C27] | 100 | 90 | 100 | 100 | 100 | 100 | 90 | 100 | 100 |  |  |  |  |  |  |  |  |  | 
